Measured values reported in ChEMBL document CHEMBL1201862, “PubChem BioAssay data set” (2004).
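96-well plates; 48 h exposure; 5 concentrations. Endpoints by linear interpolation between flanking doses. Not reached: highest tested concentration assigned. GI50 is the concentration that inhibits growth by half.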 Calls of active or inactive are those of the source. Rule as the data show it: active = GI50 up to about 1.1 µM and inactive = higher.

Assays:
Experiment in all cases: DTP human tumour cell line panel, 48 h
786-0 = system: 786-0
HT-29 = system: HT-29
KM12 = system: KM12
LOX IMVI = system: LOX IMVI
MOLT-4 = system: MOLT-4
NCI-H226 = system: NCI-H226
NCI/ADR-RES = system: NCI/ADR-RES
OVCAR-8 = system: OVCAR-8
RPMI-8226 = system: RPMI-8226
RXF 393 = system: RXF 393
SF-539 = system: SF-539
SK-MEL-5 = system: SK-MEL-5
SK-OV-3 = system: SK-OV-3
T47D = system: T47D
UACC-257 = system: UACC-257
UACC-62 = system: UACC-62
UO-31 = system: UO-31
OVCAR-4 = system: OVCAR-4
SK-MEL-28 = system: SK-MEL-28
SR = system: SR

Row | SMILES | GI50 (786-0) | GI50 (HT-29) | GI50 (KM12) | GI50 (LOX IMVI) | GI50 (MOLT-4) | GI50 (NCI-H226) | GI50 (NCI/ADR-RES) | GI50 (OVCAR-8) | GI50 (RPMI-8226) | GI50 (RXF 393) | GI50 (SF-539) | GI50 (SK-MEL-5) | GI50 (SK-OV-3) | GI50 (T47D) | GI50 (UACC-257) | GI50 (UACC-62) | GI50 (UO-31) | GI50 (OVCAR-4) | GI50 (SK-MEL-28) | GI50 (SR)
1 | CCOC(=O)C1C(c2ccccc2)C2(C#N)C(=N)OC1(C)C2(C#N)C#N (stereo unspecified) | 13.6 µM (inactive) | 16 µM (inactive) | > 10 µM (inactive) | 16 µM (inactive) | 21.1 µM (inactive) | 24.3 µM (inactive) | 27.1 µM (inactive) | 24.5 µM (inactive) | 20 µM (inactive) | 15.8 µM (inactive) | 18.1 µM (inactive) | 10.5 µM (inactive) | > 100 µM (inactive) | 32.1 µM (inactive) | 20.5 µM (inactive) | 27 µM (inactive) | 16.2 µM (inactive) |  |  | 
2 | COc1c(-c2ccc(O)c(O)c2)oc2c(O)c(O)cc(O)c2c1=O | 67.5 µM (inactive) | 20 µM (inactive) | 66.5 µM (inactive) | 15.2 µM (inactive) | 28.6 µM (inactive) | > 100 µM (inactive) | > 100 µM (inactive) | > 100 µM (inactive) | 31.8 µM (inactive) |  | > 100 µM (inactive) | 45.4 µM (inactive) | 85.9 µM (inactive) | 67 µM (inactive) | > 100 µM (inactive) | 51.1 µM (inactive) | > 100 µM (inactive) | 50.6 µM (inactive) | > 100 µM (inactive) | 22 µM (inactive)
3 | Cc1ccc(/C=N\NC(=O)c2ccncc2)s1 | > 100 µM (inactive) | > 100 µM (inactive) | > 100 µM (inactive) |  | > 100 µM (inactive) | > 100 µM (inactive) | > 100 µM (inactive) | > 100 µM (inactive) | > 100 µM (inactive) | > 100 µM (inactive) | > 100 µM (inactive) | > 100 µM (inactive) | > 100 µM (inactive) | > 100 µM (inactive) | > 100 µM (inactive) | > 100 µM (inactive) | > 100 µM (inactive) | > 100 µM (inactive) | > 100 µM (inactive) | > 100 µM (inactive)
4 | Cc1cc(C#N)c[n+](C)c1 | > 100 µM (inactive) | > 100 µM (inactive) | > 100 µM (inactive) |  | > 100 µM (inactive) | > 100 µM (inactive) | > 100 µM (inactive) | > 100 µM (inactive) |  | > 100 µM (inactive) | > 100 µM (inactive) | > 100 µM (inactive) | > 100 µM (inactive) | > 100 µM (inactive) | > 100 µM (inactive) | > 100 µM (inactive) | > 100 µM (inactive) | > 100 µM (inactive) | > 100 µM (inactive) | > 100 µM (inactive)
5 | C1=C[C@]2(CCC13OCCO3)COc1ccccc12 | 54.3 µM (inactive) | 28.5 µM (inactive) | 26.3 µM (inactive) | 21.5 µM (inactive) | 20.2 µM (inactive) | 31.9 µM (inactive) | 27.4 µM (inactive) | 32.4 µM (inactive) | 25.5 µM (inactive) |  |  | 52 µM (inactive) | 53.2 µM (inactive) | 47 µM (inactive) | 43.1 µM (inactive) | 23.9 µM (inactive) | 35.3 µM (inactive) | 47 µM (inactive) | 49.3 µM (inactive) | 29.9 µM (inactive)
6 | O=C(O)CCC(NC(=O)c1ccc(Nc2nc3ccccc3nc2C(=O)O)cc1)C(=O)O (stereo unspecified) | > 100 µM (inactive) | > 100 µM (inactive) | > 100 µM (inactive) |  | > 100 µM (inactive) |  | > 100 µM (inactive) | > 100 µM (inactive) | > 100 µM (inactive) |  | > 100 µM (inactive) | > 100 µM (inactive) | > 100 µM (inactive) | > 100 µM (inactive) | > 100 µM (inactive) | > 100 µM (inactive) | > 100 µM (inactive) | > 100 µM (inactive) | > 100 µM (inactive) | > 100 µM (inactive)
7 | C=C1CC(C)(c2cccc(Nc3nc4ccccc4c4occc34)c2)OC1=O (stereo unspecified) | 1.67 µM (inactive) | 4.99 µM (inactive) | 5.08 µM (inactive) | 1.99 µM (inactive) | 10.6 µM (inactive) | 1.5 µM (inactive) | 8 µM (inactive) | 6.08 µM (inactive) | 2.03 µM (inactive) | 2.36 µM (inactive) | 1.69 µM (inactive) | 15.1 µM (inactive) | 13.7 µM (inactive) | 3.1 µM (inactive) | 0.0218 µM (active) | 0.65 µM (active) | 1.89 µM (inactive) | 7.89 µM (inactive) | 13.9 µM (inactive) | 
8 | CC(NC(=O)OCc1ccccc1)NC(=O)C(CC(=O)OC(C)(C)C)NC(=O)OC(C)(C)C (stereo unspecified) | > 100 µM (inactive) | > 100 µM (inactive) | > 100 µM (inactive) | > 100 µM (inactive) | > 100 µM (inactive) | > 100 µM (inactive) | > 100 µM (inactive) | > 100 µM (inactive) | > 100 µM (inactive) | > 100 µM (inactive) | > 100 µM (inactive) | > 100 µM (inactive) | > 100 µM (inactive) | > 100 µM (inactive) | > 100 µM (inactive) | > 100 µM (inactive) | > 100 µM (inactive) | > 100 µM (inactive) | > 100 µM (inactive) | 
